According to ChEMBL document CHEMBL1152905, “Identification and characterization of a selective radioligand for melanin-concentrating hormone 1-receptor (MCH1R)” (Bioorg Med Chem Lett, 2009):
The source made the active and inactive calls. No cut-off for these calls is given here. Bridge positions count the residues as written; N and C are the ends. Peptide text beside a SMILES is read from it. * marks the point of attachment. X2 = NC(=O)CC[C@@H](CN[C@@H](Cc1ccc(O)c(I)c1)C(=O)O)N*; X1 = NC(=O)CC[C@@H](CN[C@@H](Cc1ccc(O)cc1)C(=O)O)N*

Key:
[1] = molecular target: Melanin-concentrating hormone receptor 2 (Homo sapiens, UniProt Q969V1); experiment: Displacement of [35S] 4-(1-(3,4-difluorophenyl)-2-(ethyl(3-(6-fluoro-3H-spiro[isobenzofuran-1,4'-piperidine]-1'-yl)propyl)amino)-2-oxoethyl)-3-oxopiperazine-1-sulfonic acid from human MCH2R
Chain of Melanin-concentrating hormone receptor 2 (Q969V1 whole entry): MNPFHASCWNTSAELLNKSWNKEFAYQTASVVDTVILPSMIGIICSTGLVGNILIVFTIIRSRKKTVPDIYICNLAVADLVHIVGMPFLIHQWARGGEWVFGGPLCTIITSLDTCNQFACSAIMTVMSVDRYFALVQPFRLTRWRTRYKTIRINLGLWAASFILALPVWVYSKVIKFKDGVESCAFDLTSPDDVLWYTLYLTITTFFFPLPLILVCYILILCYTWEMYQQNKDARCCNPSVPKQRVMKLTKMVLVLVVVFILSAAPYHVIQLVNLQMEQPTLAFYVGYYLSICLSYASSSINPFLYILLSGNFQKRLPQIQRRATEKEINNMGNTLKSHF

[2] = molecular target: T1, Melanin-concentrating hormone receptor 1 (Homo sapiens, UniProt Q99705); experiment: Displacement of [35S] 4-(1-(3,4-difluorophenyl)-2-(ethyl(3-(6-fluoro-3H-spiro[isobenzofuran-1,4'-piperidine]-1'-yl)propyl)amino)-2-oxoethyl)-3-oxopiperazine-1-sulfonic acid from human MCH1R
T1 sequence (Q99705 whole entry): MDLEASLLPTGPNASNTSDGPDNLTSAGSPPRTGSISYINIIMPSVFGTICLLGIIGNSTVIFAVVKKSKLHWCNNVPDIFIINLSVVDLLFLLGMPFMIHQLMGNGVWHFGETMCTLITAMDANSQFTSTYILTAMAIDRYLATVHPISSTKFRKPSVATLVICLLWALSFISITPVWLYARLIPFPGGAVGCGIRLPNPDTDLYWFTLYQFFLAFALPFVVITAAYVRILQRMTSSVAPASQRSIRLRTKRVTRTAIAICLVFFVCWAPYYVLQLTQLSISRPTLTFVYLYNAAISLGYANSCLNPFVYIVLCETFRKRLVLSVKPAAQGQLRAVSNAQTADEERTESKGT

[3] = molecular target: Melanin-concentrating hormone receptor 1 (Mus musculus, UniProt Q8JZL2); experiment: Displacement of [35S] 4-(1-(3,4-difluorophenyl)-2-(ethyl(3-(6-fluoro-3H-spiro[isobenzofuran-1,4'-piperidine]-1'-yl)propyl)amino)-2-oxoethyl)-3-oxopiperazine-1-sulfonic acid from mouse MCH1R
Chain of Melanin-concentrating hormone receptor 1 (Mus musculus, UniProt Q8JZL2) (Q8JZL2 whole entry): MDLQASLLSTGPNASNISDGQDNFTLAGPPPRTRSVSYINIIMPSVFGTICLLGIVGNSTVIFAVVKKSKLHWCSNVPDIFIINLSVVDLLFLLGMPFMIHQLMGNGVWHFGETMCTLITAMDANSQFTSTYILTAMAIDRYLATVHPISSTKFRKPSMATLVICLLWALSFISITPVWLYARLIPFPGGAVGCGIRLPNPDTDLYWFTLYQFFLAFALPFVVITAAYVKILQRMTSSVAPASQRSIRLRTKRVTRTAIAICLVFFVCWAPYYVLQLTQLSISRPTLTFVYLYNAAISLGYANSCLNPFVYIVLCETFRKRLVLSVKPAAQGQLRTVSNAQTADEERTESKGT

[4] = molecular target: T1, Melanin-concentrating hormone receptor 1; experiment: Displacement of[125I]MCH from human MCH1R expressed in CHO cells; type: cell-based
[5] = molecular target: T1, Melanin-concentrating hormone receptor 1; experiment: Binding affinity to human MCH1R expressed in CHO cells by scintillation counting per mg of protein; type: cell-based
[6] = molecular target: Melanin-concentrating hormone receptor 1 (Mus musculus) (UniProt Q8JZL2); experiment: Binding affinity to MCH1R in wild type mouse coronal slice […] at 500 pM by radioactivity study; conditions: tested as the 35S-labelled form
Chain of Melanin-concentrating hormone receptor 1 (Mus musculus) (Q8JZL2 whole entry): as above

[7] = Lipophilicity, log D at pH 7.4; type: physicochemical; conditions: buffer

Compound `CSCC[C@@H]1NC(=O)[C@@H](NC(=O)[C@H](CCCNC(=N)N)NC(=O)[C@H](CC(C)C)NC(=O)[C@H](CCSC)NC(=O)[C@H](CC(=O)O)NC(=O)[C@H](Cc2ccccc2)NC(=O)[C@@H](N)CC(=O)O)CSSC[C@@H](C(=O)N[C@@H](Cc2c[nH]c3ccccc23)C(=O)N[C@@H](CCC(N)=O)CN[C@@H](Cc2ccc(O)cc2)C(=O)O)NC(=O)[C@@H]2CCCN2C(=O)[C@H](CCCNC(=N)N)NC(=O)[C@H](Cc2ccccc2)NC(=O)[C@H](C(C)C)NC(=O)[C@H](CCCNC(=N)N)NC(=O)CNC(=O)[C@H](CC(C)C)NC1=O` (H-DFDMLRCMLGRVFRPCW-X1; disulfide 7-16) has a Ki [1] of 1.6 nM, a Ki [2] of 0.034 nM and a Ki [3] of 0.052 nM.
For `CCN(CCCN1CCC2(CC1)OCc1ccc(F)cc12)C(=O)C(c1ccc(F)c(F)c1)N1CCN(C(=O)OC(C)(C)C)CC1=O` (stereo in doubt; 5b), the IC50 [4] was 145 nM.
With `CCN(CCCN1CCC2(CC1)OCc1ccc(F)cc12)C(=O)C(c1ccc(F)c(F)c1)N1CCN(C(=O)OC(C)(C)C)CC1=O` (stereo in doubt; 5a) the IC50 [4] was 0.24 nM.
For `CCN(CCCN1CCC2(CC1)OCc1ccc(F)cc12)C(=O)C(c1ccc(F)c(F)c1)N1CCN([35S](C)(=O)=O)CC1=O` (centres undefined), the Ki [1] was over 9700 nM and the Ki [3] was 0.5 nM.
In the case of `CSCC[C@@H]1NC(=O)[C@@H](NC(=O)[C@H](CCCNC(=N)N)NC(=O)[C@H](CC(C)C)NC(=O)[C@H](CCSC)NC(=O)[C@H](CC(=O)O)NC(=O)[C@H](Cc2ccccc2)NC(=O)[C@@H](N)CC(=O)O)CSSC[C@@H](C(=O)N[C@@H](Cc2c[nH]c3ccccc23)C(=O)N[C@@H](CCC(N)=O)CN[C@@H](Cc2ccc(O)c(I)c2)C(=O)O)NC(=O)[C@@H]2CCCN2C(=O)[C@H](CCCNC(=N)N)NC(=O)[C@H](Cc2ccccc2)NC(=O)[C@H](C(C)C)NC(=O)[C@H](CCCNC(=N)N)NC(=O)CNC(=O)[C@H](CC(C)C)NC1=O` (H-DFDMLRCMLGRVFRPCW-X2; disulfide 7-16), the Bmax ([5]; tested as the 125I-labelled form) is reported as 24 pmol.
`CCN(CCCN1CCC2(CC1)OCc1ccc(F)cc12)C(=O)C(c1ccc(F)c(F)c1)N1CCNCC1=O` (centres undefined) gave an IC50 [4] of 0.87 nM.
With `CCN(CCCN1CCC2(CC1)OCc1ccc(F)cc12)C(=O)C(c1ccc(F)c(F)c1)N1CCN(S(C)(=O)=O)CC1=O` (centres undefined) the Bmax ([5]; tested as the 35S-labelled form) was 23 pmol and the Activity [6] was “Active”.
`CN(CCCN1CCC2(CC1)OCc1ccccc12)C(=O)C(c1ccc(F)c(F)c1)N1CCCC1=O` (centres undefined) gave an IC50 [4] of 2.7 nM and a logD [7] of 2.2.
Work on `CCN(CCCN1CCC2(CC1)OCc1ccc(F)cc12)C(=O)C(c1ccc(F)c(F)c1)N1CCCC1=O` (centres undefined) yielded an IC50 [4] of 0.71 nM.
